Columns and labels:
APP/PS1 mice = assay: Immunohistochemistry of hippocampus, APP/PS1 mice; format: in vivo, mouse
Description: For an animal model of AD, both sexes of 10- to 18-month-old APP/PS1 mice were maintained and used as previously described.[76],[77] To test the effects of novel H2O2-decomposing enhancers in the AD model, the mice were treated by i.p. injection with KDS12008 (3 mg/kg/day), KDS12017 (3 mg/kg/day), or KDS12025 (3 or 10 mg/kg/day) once per day for 1 or 2 weeks, depending on the experimental protocol. All drugs were dissolved in 200 μl of saline, and the amount of each drug was calculated on the basis of the weight (kg) of the mouse. Moreover, KDS12025 (3 mg/kg/day) was orally administered to the AD model for 2 weeks ad libitum.
The mice were deeply anesthetized with vaporized 1% isoflurane and placed into stereotaxic frames (RWD Life Science, China). Following an incision on the midline of the scalp, a hole was drilled into the skull above the hippocampus. AAV-GFAP104-GFP or AAV-GFAP104-DTR-GFP was bilaterally microinjected into the hippocampal CA1 region (AP, −2.0 mm; ML, ±1.5 mm; DV, −1.65 mm from the bregma). Diphtheria toxin (2 mg/ml) was administered for 16 days as previously described.[77] For shRNA knockdown, AAV-pSicoR-Hbβ-shRNA-mCherry or AAV-pSicoR-Sc-shRNA-mCherry was microinjected into the same coordinate system. A total of 0.8 µl of the virus was injected via a syringe pump (KD Scientific, USA). The injection procedures were implemented before 5 weeks of the experiments. For cell type-specific knockdown, AAV-pSico-Hbβ-shRNA-GFP or AAV-pSico-Sc-shRNA-GFP was combined with either AAV-CaMKII-Cre-mCherry for neuronal targeting or AAV-GFAP-Cre-mCherry for astrocyte targeting. The viruses were bilaterally injected into the hippocampus and substantia nigra via the same stereotaxic coordinates and injection procedures. All viruses used in this study were produced at the Institute for Basic Science virus facility (IBS virus facility, Korea). To investigate the effects of 0.1 mg/kg/day KDS12025, GiD mice were injected with diphtheria toxin (2 mg/ml) daily for 16 days. Concurrently, KDS12025 was administered ad libitum (0.1 mg/kg/day) during the same period.
The mice were deeply anesthetized with 2% isoflurane and positioned on the operating table. After the abdomen was opened and the heart was exposed, the […] were perfused with saline, followed by 4% paraformaldehyde (PFA) in 0.1 M PBS. The mice were decapitated, and the brains were excised from the skull. Excised brains were postfixed in 4% PFA overnight at 4 °C and dehydrated in 30% sucrose for 48 h. Coronal hippocampal sections were cut at 30 µm thickness with a cryostat and stored in storage solution. For the ALS experiments, lumbar spinal cords (L2–L5) were also carefully dissected and immediately immersed in 4% PFA for postfixation. The sections were fully washed in 0.1 M PBS and incubated for 1 h in blocking solution (0.3% Triton X-100, 2% donkey and goat serum in 0.1 M PBS). Next, a mixture of primary antibodies in the blocking solution was used for immunostaining on a shaker overnight at 4 °C. The sections were washed in PBS three times. After washing, the sections were incubated with the corresponding fluorescent secondary antibodies for 1 h at RT. DAPI staining was performed by adding a DAPI solution (1:2000) during the second washing step. After the washing step was complete, the sections were mounted on cover slides with mounting medium. A series of fluorescence images were obtained with an LSM900 (Zeiss, Germany) confocal microscope or Lattice SIM Elyra 7 (Zeiss, Germany). The 15–22 μm Z stack images in 1–2 μm steps were processed for image analysis, which was performed via the ImageJ (NIH, US) and ZEN digital imaging for light microscopy blue system (Zeiss, Germany) programs.

HRP = biological target: T1, HRP (Armoracia rusticana, UniProt P00433); assay: H2O2 assay with HRP (HRP-EC50); format: biochemical, horseradish; settings: Tables S2, S3; read-out: HRP-EC50
T1 sequence (P00433 31-353): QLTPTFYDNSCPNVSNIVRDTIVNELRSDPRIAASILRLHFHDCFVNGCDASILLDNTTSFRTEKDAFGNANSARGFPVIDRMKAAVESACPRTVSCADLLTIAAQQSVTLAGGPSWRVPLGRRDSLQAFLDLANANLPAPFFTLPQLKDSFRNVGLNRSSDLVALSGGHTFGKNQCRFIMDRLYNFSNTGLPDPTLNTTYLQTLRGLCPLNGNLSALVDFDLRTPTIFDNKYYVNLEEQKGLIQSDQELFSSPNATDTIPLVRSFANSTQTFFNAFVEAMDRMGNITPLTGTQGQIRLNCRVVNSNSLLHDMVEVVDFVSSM
Description: Hb (Sigma‒Aldrich, H7379), H2O2 (Sigma‒Aldrich, H1009), and Amplex Red reagents (Invitrogen, A12222) were obtained for the study. A 4 μM H2O2 solution was prepared in 50 mM sodium phosphate buffer (pH 7.2). Then, 49 μl of this mixture was mixed with 1 μl of the test compound in DMSO or distilled water. The mixture was combined with an assay mixture of Amplex Red reagent (20 mM stock to 0.1 mM) and HRP (200 U/ml stock to 0.2 U/ml) and added to the wells at 50 μl/well. After a 60-min incubation at 37 °C, resorufin production was quantified via a microplate fluorescence reader (SpectraMax iD5, Molecular Devices) at ex/em = 535/580 nm. The H2O2-decomposing activity was estimated via the following equation: (sample fluorescence-blank fluorescence)/(control […]-blank fluorescence) × 100. For the ROS-Glo assay, the H2O2 substrate solution and ROS-Glo detection solution were prepared according to the manufacturer’s instructions. 10 μM H2O2 and drugs were prepared as in the Amplex Red assay, with HRP, Hb, CAT, or GPx added as needed. The mixture was added to the wells at 100 μl/well and incubated for 60 min at 37 °C. H2O2 substrate solution was added, and the mixture was incubated at room temperature for 30 min. After the H2O2 substrate solution was added and incubated at room temperature for 30 min, the ROS-Glo detection solution was added, and the mixture was incubated for 15 min. Luminescence was measured via iD5 microplate readers. The H2O2-decomposing activity was estimated via the following equation: (sample luminescence-blank luminescence)/(control luminescence-blank luminescence) × 100. The U/ml was calculated on the basis of the amount of H2O2 reduced by Hb during the reaction, using μg/ml and U/mg.

CNc1ccc(NCCc2ccccc2OC)cc1.Cl [KDS12025, N^1-(2-methoxyphenethyl)-N^4-methylbenzene-1,4-diamine hydrochloride salt]
mean Hbβ intensity in GFAP-positive areas (APP/PS1 mice; 3 mg/kg/day ad libitum, Fig. 5e): WT (70.03±1.523, n=55), APP (62.3±1.219, n=65), APP+KDS12025 (ad libitum) (68.67±2.358, n=54) One-way ANOVA with Tukey's multiple comparisons test, F(2,171) = 6.123, p = 0.003 WT vs. APP, p = 0.004; WT vs. APP+KDS12025 (ad libitum), p = 0.85; APP vs. APP+KDS12025 (ad libitum), p = 0.02
mean GFAP intensity in GFAP-positive areas (APP/PS1 mice; 3 mg/kg/day ad libitum, Fig. 5f): WT (61.01±2.28, n=6), APP (114.3±9.536, n=6), APP+KDS12025 (ad libitum) (64.48±6.98, n=6) One-way ANOVA with Tukey's multiple comparisons test, F(2,14) = 17.24, p < 0.001 WT vs. APP, p < 0.001; WT vs. APP+KDS12025 (ad libitum), p = 0.89; APP vs. APP+KDS12025 (ad libitum), p < 0.001
Sholl analysis, sum of intersections (APP/PS1 mice; 3 mg/kg/day ad libitum, Fig. 5g): WT (31.45±3.606, n=11), APP (63.19±5.017, n=16), APP+KDS12025 (ad libitum) (33.69±3.3, n=13) One-way ANOVA with Tukey's multiple comparisons test, F(2,37) = 18.10, p < 0.001 WT vs. APP, p < 0.001; WT vs. APP+KDS12025 (ad libitum), p = 0.94; APP vs. APP+KDS12025 (ad libitum), p < 0.001
Sholl analysis, ending radius (APP/PS1 mice; 3 mg/kg/day ad libitum, Fig. 5i): WT (110.0±6.606, n=11), APP (135.6±5.625, n=16), APP+KDS12025 (ad libitum) (103.1±7.794, n=13) One-way ANOVA with Tukey's multiple comparisons test, F(2,37) = 7.249, p = 0.002 WT vs. APP, p = 0.03; WT vs. APP+KDS12025 (ad libitum), p = 0.77; APP vs. APP+KDS12025 (ad libitum), p = 0.003
Sholl analysis, number of intersections (APP/PS1 mice; 3 mg/kg/day ad libitum, Fig. 5j): Two-way ANOVA with Tukey's multiple comparison test, F (2,378) = 37.72, p < 0.001 WT (2.028, n=12), APP (4.318, n=17), APP+KDS12025 (ad libitum) (2.392, n=12) WT vs. APP, p < 0.001 (***); WT vs. APP+KDS12025 (ad libitum), p = 0.52; APP vs. APP+KDS12025 (ad libitum), p < 0.001 (^###)
Sholl analysis, ramification index (APP/PS1 mice; 3 mg/kg/day ad libitum, Fig. 5h): WT (1.617±0.2177, n=11), APP (7.134±1.523, n=16), APP+KDS12025 (ad libitum) (2.808±0.6584, n=13) One-way ANOVA with Tukey's multiple comparisons test, F(2,37) = 6.945, p = 0.003 WT vs. APP, p = 0.004; WT vs. APP+KDS12025 (ad libitum), p = 0.76; APP vs. APP+KDS12025 (ad libitum), p = 0.02
mean intensity of GABA in GFAP-positive area (APP/PS1 mice; 3 mg/kg/day ad libitum, Fig. S11c): WT (41.73±1.1951, n=19), APP (50.90±1.074, n=41), APP+KDS12025 (ad libitum) (44.45±1.015, n=28) One-way ANOVA with Tukey's multiple comparisons test, F(2,85) = 14.24, p < 0.001 WT vs. APP, p < 0.001; WT vs. APP+KDS12025 (ad libitum), p = 0.38; APP vs. APP+KDS12025 (ad libitum), p < 0.001
mean intensity of 8-OHdG in GFAP-positive area (APP/PS1 mice; 3 mg/kg/day ad libitum, Fig. S11d): WT (1903±72.86, n=32), APP (2435±66.11, n=58), APP+KDS12025 (ad libitum) (1951±48.61, n=57) One-way ANOVA with Tukey's multiple comparisons test, F(2,144) = 23.42, p < 0.001 WT vs. APP, p < 0.001; WT vs. APP+KDS12025 (ad libitum), p = 0.88; APP vs. APP+KDS12025 (ad libitum), p < 0.001
mean intensity of Iba1 in the hippocampus (APP/PS1 mice; 3 mg/kg/day i.p., Fig. S10e): 1343±38.44
mean intensity of GFAP in the hippocampus (APP/PS1 mice; 3 mg/kg/day i.p., Fig. S10d): 1190±87.29
mean intensity of GFAP in the hippocampus (APP/PS1 mice; 3mpk i.p., Fig. S10i): 59.33±6.459
mean intensity of GFAP in the hippocampus (APP/PS1 mice; 10mpk i.p., Fig. S10i): 56.71±4.775
GFAP-positive area (APP/PS1 mice; APP+ScRNA+KDS12025, Fig. 6i): 142.4±8.715
GFAP intensity (APP/PS1 mice; APP+ScRNA+KDS12025, Fig. 6j): 124.3±1.773
Hbβ intensity in GFAP-positive areas (APP/PS1 mice; APP+ScRNA+KDS12025, Fig. 6h): 10.10±0.4531
Sholl analysis, sum of intersections (APP/PS1 mice; APP+ScRNA+KDS12025, Fig. S16e): 142.4±8.715
Sholl analysis, ending radius (APP/PS1 mice; APP+ScRNA+KDS12025, Fig. S16f): 54.48±2.319
Sholl analysis, number of intersections (APP/PS1 mice; APP+ScRNA+KDS12025, Fig. S16g): 4.984±0.7027
GFAP-positive area (APP/PS1 mice; APP+shHbβ+KDS12025, Fig. 6i): 234.3±16.93
GFAP intensity (APP/PS1 mice; APP+shHbβ+KDS12025, Fig. 6j): 146.8±2.262
Hbβ intensity in GFAP-positive areas (APP/PS1 mice; APP+shHbβ+KDS12025, Fig. 6h): 6.275±0.4473
Sholl analysis, sum of intersections (APP/PS1 mice; APP+shHbβ+KDS12025, Fig. S16e): 234.3±16.93
Sholl analysis, ending radius (APP/PS1 mice; APP+shHbβ+KDS12025, Fig. S16f): 100.4±6.075
Sholl analysis, number of intersections (APP/PS1 mice; APP+shHbβ+KDS12025, Fig. S16g): 5.314±0.9626
Hbβ intensity in GFAP-positive areas (APP/PS1 mice; APP+shHbβ::CaMKII+KDS12025, Fig. 6m): 110.5±1.59
GFAP-positive area (APP/PS1 mice; APP+shHbβ::CaMKII+KDS12025, Fig. 6n): 55.98±5.45
GFAP intensity (APP/PS1 mice; APP+shHbβ::CaMKII+KDS12025, Fig. 6o): 131.4±3.56
Sholl analysis, sum of intersections (APP/PS1 mice; APP+shHbβ::CaMKII+KDS12025, Fig. S17b): 42.1±3.9
Sholl analysis, ending radius (APP/PS1 mice; APP+shHbβ::CaMKII+KDS12025, Fig. S17c): 80.3±6.8
Hbβ intensity in GFAP-positive areas (APP/PS1 mice; APP+shHbβ::GFAP+KDS12025, Fig. 6m): 87.46±1.26
GFAP-positive area (APP/PS1 mice; APP+shHbβ::GFAP+KDS12025, Fig. 6n): 134.3±10.91
GFAP intensity (APP/PS1 mice; APP+shHbβ::GFAP+KDS12025, Fig. 6o): 152.1±5.50
Sholl analysis, sum of intersections (APP/PS1 mice; APP+shHbβ::GFAP+KDS12025, Fig. S17b): 57.9±3.7
Sholl analysis, ending radius (APP/PS1 mice; APP+shHbβ::GFAP+KDS12025, Fig. S17c): 109.8±5.4
EC50 (HRP): 529 nM

— PMC12373846, “Hemoglobin as a pseudoperoxidase and drug target for oxidative stress-related diseases” (Signal Transduction and Targeted Therapy, 2025)
